Reference: patent US6136784A, “Amylin agonist pharmaceutical compositions containing insulin” (Amylin Pharmaceuticals, Inc., priority 1998, dated 2000)
Like-named read-outs stand apart in the source and are kept apart here. Positions of bridges follow the written chain, without caps; N, C: chain ends. No end group written: not given here.

Legend:
[1] = tested on: insulin-stimulated glycogen synthesis in soleus muscle; assay: Soleus muscle assay (inhibition of insulin-stimulated glycogen synthesis); format: cell-based, rat; conditions: 7.1 nM insulin
Method: Assays of biological activity of amylin agonists in the soleus muscle may be performed using previously described methods (Leighton, B. and Cooper, Nature, 335:632-635 (1988); Cooper, et al., Proc. Natl. Acad. Sci. USA 85:7763-7766 (1988)), in which amylin agonist activity may be assessed by measuring the inhibition of insulin-stimulated glycogen synthesis. The soleus muscle assay is also described below.
Determination of amylin agonist activity of compounds was carried out using the soleus muscle assay as follows. Male Harlan Sprague-Dawley rats of approximately 200 g mass were used in order to maintain mass of the split soleus muscle less than 40 mg. The animals were fasted for 4 hours prior to sacrifice by decapitation. The skin was stripped from the lower limb which was then pinned out on corkboard. The tendo achilles was cut just above os calcis and m. gastrocnemius reflected out from the posterior aspect of the tibia. M. soleus, a small 15-20 mm long, 0.5 mm thick flat muscle on the bone surface of m. gastrocnemius was then stripped clear and the perimysium cleaned off using fine scissors and forceps. […]
^14 C-glycogen determination was performed in a 7 mL scintillation vial. […] The remaining glycogen was redissolved in 1 mL water and 4 mL scintillation fluid and counted for ^14 C. […]

diabetic BB rats = assay: Phenol red gastric emptying assay, diabetic rats; format: in vivo, rat; conditions: sc bolus 5 minutes before gavage, ±0.18 log units
Description: (§1) Methods of measuring the rate of gastric emptying are disclosed in, for example, Young et al., Diabetolocia, 38(6):642-648 (1995). In a phenol red method, which is described below, conscious rats receive by gavage an acoloric gel containing methyl cellulose and a phenol red indicator. Twenty minutes after gavage, animals are anesthetized using halothane, the stomach exposed and clamped at the pyloric and lower esophageal sphincters, removed and opened into an alkaline solution. Stomach content may be derived from the intensity of the phenol red in the alkaline solution, measured by absorbance at a wavelength of 560 nm. […] Tritium in the plasma separated from tail blood is collected at various timepoints and detected in a beta counter. […]
(§2) Gastric emptying was measured using a modification (Plourde et al., Life Sci. 53:857-862 (1993)) of the original method of Scarpignato et al. (Arch. Int. Pharmacodyn. Ther. 246:286-295 (1980)). […] Stomach content was derived from the intensity of the phenol red in the alkaline solution, measured by absorbance at a wavelength of 560 nm. […] In other experiments, particulate gastric contents were centrifuged to clear the solution for absorbance measurements. Where the diluted gastric contents remained turbid, the spectroscopic absorbance due to phenol red was derived as the difference between that present in alkaline vs acetified diluent. […]

[2] = tested on: Harlan Sprague Dawley rats; assay: Tritiated glucose gastric emptying assay; format: in vivo, rat; conditions: sc 1 minute before gavage of tritiated glucose
Description: Methods of measuring the rate of gastric emptying are disclosed in, for example, Young et al., Diabetolocia, 38(6):642-648 (1995). In a phenol red method, which is described below, conscious rats receive by gavage an acoloric gel containing methyl cellulose and a phenol red indicator. Twenty minutes after gavage, animals are anesthetized using halothane, the stomach exposed and clamped at the pyloric and lower esophageal sphincters, removed and opened into an alkaline solution. Stomach content may be derived from the intensity of the phenol red in the alkaline solution, measured by absorbance at a wavelength of 560 nm. In a tritiated glucose method, which is described in Example 9 below, conscious rats are gavaged with tritiated glucose in water. The rats are gently restrained by the tail, the tip of which is anesthetized using lidocaine. Tritium in the plasma separated from tail blood is collected at various timepoints and detected in a beta counter. Test compounds are normally administered about one minute before gavage.
Conscious, non-fasted, Harlan Sprague Dawley rats were restrained by the tail, the tip of which was anesthetized using 2% lidocaine. Tritium in plasma separated from tail blood collected 0, 15, 30, 60, 90 and 120 minutes after gavage was detected in a beta counter. […]

[3] = tested on: Harlan Sprague Dawley (non-diabetic) rats; assay: Phenol red gastric emptying assay, normal rats; format: in vivo, rat; conditions: sc bolus 5 minutes before gavage, ±0.19 log units
Description: as §1, §2

[4] = 28 days, cited from earlier work
[5] = 30-microgram doses four times per day, 14 days; p=0.003; cited from earlier work
[6] = intravenous infusion; cited from earlier work
[7] = self injected three times per day, 14 days, plus usual insulin; cited from earlier work
[8] = cited from earlier work
[9] = in vivo, sc; cited from earlier work

For “^2,7 Cyclo-[^2 Asp,^7 Lys]-h-Amylin (KDNTATKATQRLANFLVHSSNNFGAILSSTNVGSNTY; lactam 2-7; ends not checked; UniProt P10997 34-70, looked up, variant C2D C7K) [compound 2]”, which EC50 [1] is on record?
Its EC50 is 6.62 nM.

Which ED50 for inhibition of gastric emptying (diabetic BB rats) does the source give for rat amylin here?
Its ED50 for inhibition of gastric emptying is 2.2 µg.

And the ED50 derived from the logistic fit (plasma tritium AUC over 30 minutes) [2]?
The ED50 derived from the logistic fit (plasma tritium AUC over 30 minutes) was 0.35 µg.

What about the ED50 for inhibition of gastric emptying [3] of the same substance?
The ED50 for inhibition of gastric emptying was 0.43 µg.

With ^25,28,29 Pro-h-Amylin [compound 12] as the substance, how does the Lowering of fructosamine ([4]; 30 micrograms four times a day, p=0.029) read?
The Lowering of fructosamine was 17.5 µmol/L.

What about the Lowering of fructosamine ([4]; 60 micrograms four times a day, p=0.001) of the same substance?
Its Lowering of fructosamine is 22.6 µmol/L.

What about the Lowering of fructosamine ([4]; 60 micrograms three times a day, p=0.003) of the same substance?
The Lowering of fructosamine was 24.1 µmol/L.

What about the “Reduction of average blood-glucose concentrations over a 24-hour observation period compared to placebo” value [5] of the same substance?
The value was 35 mg/dL.

What about the Post-meal blood-glucose concentrations [6] of the same substance?
The Post-meal blood-glucose concentrations was “significantly reduced”.

What about the “Blood-glucose concentrations after a test meal compared to placebo” value [7] of the same substance?
Its value is “statistically significant reduction”.

What about the Tolerability ([8]; 30-microgram dose) of the same substance?
The Tolerability was “well tolerated”.

What about the “Lowering of fructosamine compared to placebo” value ([8]; 30-microgram doses four times per day, 28 days, p=0.003) of the same substance?
The value was 33 µmol/L.

What about the “Lowering of 24-hour average blood-glucose concentrations compared to placebo” value ([8]; 30-microgram doses four times per day, 28 days, p=0.009) of the same substance?
The value was 31 mg/dL.

Which results are given for “soluble insulin: soluble insulin given by subcutaneous injection”?
Duration of action (lasts for) [9]: 4 to 6 h; Time to absorption following subcutaneous injection [9]: 30 min

With ^25,28 Pro-h-Amylin [compound 6] as the substance, how does the EC50 [1] read?
Its EC50 is 13.2 nM.
